# Assay results as given in patent US4757079A, “Anti-hypertensive piperidine compounds” (Dynamac Corporaton, priority 1986, dated 1988).
# Structures can show the parent of a compound that is named as a salt.
# How the values were obtained:
# [1] = tested on: peripheral muscarinic receptors; assay: response to vagal stimulation or to exogenous acetylcholine in the cat; type: in vivo; settings: 1 to 10 mg/kg i.v.
# cat [2] = assay: blood pressure and heart rate in the cat (i.v.); type: in vivo
# cat [3] = assay: heart rate and mean blood pressure in cats pretreated with hexamethonium and atropine; type: in vivo; settings: compared with absence of the blocking agents
# nictitating membrane = assay: responsiveness of the nictitating membrane to pre- or post-ganglionic stimulation in the cat; type: in vivo; settings: 1 to 10 mg/kg i.v.
# guinea pig ileum = assay: anticholinergic activity on the guinea pig ileum
# neuromuscular function = assay: neuromuscular twitch response in the cat; type: in vivo
# [4] = tested on: rat hemidiaphragm preparation; assay: rat hemidiaphragm preparation, perfusate volume (vasodilatory effect)
structure (smiles),measurement,setting,value
"CN1CCC(/C=C/c2cccc3ccccc23)CC1 [B-120, 1-methyl-4-(1-naphthylvinyl)piperidine hydrochloride]",response to exogenous acetylcholine,[1],did not alter the response
same,response to vagal stimulation,[1],did not alter the response
same,Heart Rate,"cat [2]; 5.0 mg/kg i.v., cat",90 % Control
same,Mean Blood Pressure,"cat [2]; 5.0 mg/kg i.v., cat",60 % Control
same,Pulse Pressure,"cat [2]; 5.0 mg/kg i.v., cat",110 % Control
same,Heart Rate,"cat [2]; 10.0 mg/kg i.v., cat",80 % Control
same,Mean Blood Pressure,"cat [2]; 10.0 mg/kg i.v., cat",30 % Control
same,Pulse Pressure,"cat [2]; 10.0 mg/kg i.v., cat",70 % Control
same,heart rate rhythm,"cat [2]; 50 mg/kg i.v., cat",did not show evidence of abnormal rhythm
same,Heart Rate,"cat [2]; 50.0 mg/kg i.v., cat",0 % Control
same,Mean Blood Pressure,"cat [2]; 50.0 mg/kg i.v., cat",0 % Control
same,Pulse Pressure,"cat [2]; 50.0 mg/kg i.v., cat",0 % Control
same,Heart Rate,"cat [2]; 0.5 to 50 mg/kg i.v., cat",dose-related decrease
same,Mean Blood Pressure,"cat [2]; 0.5 to 50 mg/kg i.v., cat",dose-related decrease
same,diastolic versus systolic blood pressure,"cat [2]; 0.5 to 50 mg/kg i.v., cat",greater decrease in diastolic than systolic blood pressure
same,death,cat [2]; in vivo,death appeared to be caused by hypotensive crisis
same,reduction in heart rate,cat [3],comparable to that induced in the absence of the blocking agents
same,reduction in mean blood pressure,cat [3],comparable to that induced in the absence of the blocking agents
same,responsiveness of the nictitating membrane to pre- or post-ganglionic stimulation,nictitating membrane,did not diminish the responsiveness
same,anticholinergic activity,guinea pig ileum,essentially devoid of anticholinergic activity
same,anticholinergic potency on a relative scale vs atropine sulfate,guinea pig ileum; relative to atropine sulfate,5.5×10^-4
same,neuromuscular twitch response,neuromuscular function,no significant decrease
same,increase in perfusate volume,[4]; 17.5 mg/L,not significant
same,perfusate volume after removal of the B-120,[4]; after 35 mg/L,returned to normal
